Data taken from the supplement of paper PMC4862054.

Tested on: MDA-MB-231
Test: normalised viability (% of control), CellTiter-Blue; higher = more viable cells (about 100 = DMSO control)
Settings: 10 nM; incubation time: 72 h
Procedure, shortened: (§1)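 Vehicle (100) and a positive kill control (0) anchored the normalisation of each plate, and Z'-factor was used for quality control. Breast cancer cell lines in 20 µl suspension were incubated 72 h over compound in 5 µl medium in 384-well plates, followed by CellTiter-Blue at 560/590 nm. The value is normalised viability at a single listed concentration of the series.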

SMILES | normalised viability
C[C@@H](Oc1cc(-c2cnn(C3CCNCC3)c2)cnc1N)c1c(Cl)ccc(F)c1Cl [Crizotinib] | 89.8%
CC1(C)NC(=O)N(c2ccc([N+](=O)[O-])c(C(F)(F)F)c2)C1=O [Nilutamide] | 102%
CNCc1ccc(-c2[nH]c3cc(F)cc4c3c2CCNC4=O)cc1 [Rucaparib] | 99.2%

Same assay, conditions: 100 nM; incubation time: 72 h

SMILES | normalised viability
CC(=O)Nc1ccc(C(=O)Nc2ccccc2N)cc1 [CI-994] | 101%
Cc1ccc(C(=O)Nc2ccc(CN3CCN(C)CC3)c(C(F)(F)F)c2)cc1C#Cc1cnc2cccnn12 [Ponatinib] | 82.6%

Same assay, conditions: 1000 nM; incubation time: 72 h

SMILES | normalised viability
Oc1nc(-c2ccc(C(F)(F)F)cc2)nc2c1CSCC2 [XAV-939] | 87.6%
CC(=O)Nc1ccc(C(=O)Nc2ccccc2N)cc1 [CI-994] | 115%
N.N.[Cl][Pt][Cl] [Cisplatin] | 101%
Cc1ccc(C(=O)Nc2ccc(CN3CCN(C)CC3)c(C(F)(F)F)c2)cc1C#Cc1cnc2cccnn12 [Ponatinib] | 16.9%
CN[C@@H]1C[C@H]2O[C@@](C)([C@@H]1OC)n1c3ccccc3c3c4c(c5c6ccccc6n2c5c31)C(=O)N[C@H]4O [UCN-01] | 17.2%
C[C@@H](Oc1cc(-c2cnn(C3CCNCC3)c2)cnc1N)c1c(Cl)ccc(F)c1Cl [Crizotinib] | 63.5%
CC1(C)NC(=O)N(c2ccc([N+](=O)[O-])c(C(F)(F)F)c2)C1=O [Nilutamide] | 92.2%
CNCc1ccc(-c2[nH]c3cc(F)cc4c3c2CCNC4=O)cc1 [Rucaparib] | 84.3%

Same assay, conditions: 10000 nM; incubation time: 72 h

SMILES | normalised viability
Oc1nc(-c2ccc(C(F)(F)F)cc2)nc2c1CSCC2 [XAV-939] | 71.4%
N.N.[Cl][Pt][Cl] [Cisplatin] | 104%
CN[C@@H]1C[C@H]2O[C@@](C)([C@@H]1OC)n1c3ccccc3c3c4c(c5c6ccccc6n2c5c31)C(=O)N[C@H]4O [UCN-01] | 0.84%
C[C@@H](Oc1cc(-c2cnn(C3CCNCC3)c2)cnc1N)c1c(Cl)ccc(F)c1Cl [Crizotinib] | 0.88%
CC1(C)NC(=O)N(c2ccc([N+](=O)[O-])c(C(F)(F)F)c2)C1=O [Nilutamide] | 109%
CNCc1ccc(-c2[nH]c3cc(F)cc4c3c2CCNC4=O)cc1 [Rucaparib] | 75.4%

Tested on: BT-474
Test: as above
Settings: 1 nM; incubation time: 72 h
Procedure, shortened: as §1

SMILES | normalised viability
CC(=O)Nc1ccc(C(=O)Nc2ccccc2N)cc1 [CI-994] | 104%
Cc1ccc(C(=O)Nc2ccc(CN3CCN(C)CC3)c(C(F)(F)F)c2)cc1C#Cc1cnc2cccnn12 [Ponatinib] | 102%

Same assay, conditions: 10 nM; incubation time: 72 h

SMILES | normalised viability
Oc1nc(-c2ccc(C(F)(F)F)cc2)nc2c1CSCC2 [XAV-939] | 107%
N.N.[Cl][Pt][Cl] [Cisplatin] | 115%
CN[C@@H]1C[C@H]2O[C@@](C)([C@@H]1OC)n1c3ccccc3c3c4c(c5c6ccccc6n2c5c31)C(=O)N[C@H]4O [UCN-01] | 108%
C[C@@H](Oc1cc(-c2cnn(C3CCNCC3)c2)cnc1N)c1c(Cl)ccc(F)c1Cl [Crizotinib] | 94.2%
CC1(C)NC(=O)N(c2ccc([N+](=O)[O-])c(C(F)(F)F)c2)C1=O [Nilutamide] | 122%
CNCc1ccc(-c2[nH]c3cc(F)cc4c3c2CCNC4=O)cc1 [Rucaparib] | 108%

Same assay, conditions: 100 nM; incubation time: 72 h

SMILES | normalised viability
CC(=O)Nc1ccc(C(=O)Nc2ccccc2N)cc1 [CI-994] | 117%
Cc1ccc(C(=O)Nc2ccc(CN3CCN(C)CC3)c(C(F)(F)F)c2)cc1C#Cc1cnc2cccnn12 [Ponatinib] | 110%

Same assay, conditions: 1000 nM; incubation time: 72 h

SMILES | normalised viability
Oc1nc(-c2ccc(C(F)(F)F)cc2)nc2c1CSCC2 [XAV-939] | 100%
CC(=O)Nc1ccc(C(=O)Nc2ccccc2N)cc1 [CI-994] | 97.4%
N.N.[Cl][Pt][Cl] [Cisplatin] | 122%
Cc1ccc(C(=O)Nc2ccc(CN3CCN(C)CC3)c(C(F)(F)F)c2)cc1C#Cc1cnc2cccnn12 [Ponatinib] | 91.2%
CN[C@@H]1C[C@H]2O[C@@](C)([C@@H]1OC)n1c3ccccc3c3c4c(c5c6ccccc6n2c5c31)C(=O)N[C@H]4O [UCN-01] | 44.2%
C[C@@H](Oc1cc(-c2cnn(C3CCNCC3)c2)cnc1N)c1c(Cl)ccc(F)c1Cl [Crizotinib] | 93.3%
CC1(C)NC(=O)N(c2ccc([N+](=O)[O-])c(C(F)(F)F)c2)C1=O [Nilutamide] | 128%
CNCc1ccc(-c2[nH]c3cc(F)cc4c3c2CCNC4=O)cc1 [Rucaparib] | 111%

Same assay, conditions: 10000 nM; incubation time: 72 h

SMILES | normalised viability
Oc1nc(-c2ccc(C(F)(F)F)cc2)nc2c1CSCC2 [XAV-939] | 103%
N.N.[Cl][Pt][Cl] [Cisplatin] | 135%
CN[C@@H]1C[C@H]2O[C@@](C)([C@@H]1OC)n1c3ccccc3c3c4c(c5c6ccccc6n2c5c31)C(=O)N[C@H]4O [UCN-01] | 2.62%
C[C@@H](Oc1cc(-c2cnn(C3CCNCC3)c2)cnc1N)c1c(Cl)ccc(F)c1Cl [Crizotinib] | 10.3%
CC1(C)NC(=O)N(c2ccc([N+](=O)[O-])c(C(F)(F)F)c2)C1=O [Nilutamide] | 110%
CNCc1ccc(-c2[nH]c3cc(F)cc4c3c2CCNC4=O)cc1 [Rucaparib] | 102%

Tested on: HCC1143
Test: as above
Settings: 1 nM; incubation time: 72 h
Procedure, shortened: as §1

SMILES | normalised viability
CC(=O)Nc1ccc(C(=O)Nc2ccccc2N)cc1 [CI-994] | 113%

Same assay, conditions: 10 nM; incubation time: 72 h

SMILES | normalised viability
Oc1nc(-c2ccc(C(F)(F)F)cc2)nc2c1CSCC2 [XAV-939] | 80.4%
N.N.[Cl][Pt][Cl] [Cisplatin] | 88.2%
